Reference: paper PMC4448987, “A neuroligin-1-derived peptide stimulates phosphorylation of the NMDA receptor NR1 subunit and rescues MK-801-induced decrease in long-term potentiation and memory impairment” (Pharmacology Research & Perspectives, 2015)

Test system: hippocampal slices (LTP)
Test: LTP in acute hippocampal slices, peptide added directly to aCSF
Set-up: species or system mice
Conditions: neurolide-1 alone, 1 µmol/L added to running artificial CSF during baseline before LTP induction
Method: Measurements were made in oxygenated aCSF at room temperature (1.1 mL/min). Schaeffer collaterals were stimulated with a bipolar concentric electrode (TM33CCNON; World Precision Instruments, Sarasota, FL). The field potential in the stratum radiatum of the CA1 area of the hippocampus was recorded with an extracellular glass microelectrode (4–6 MΩ, filled with aCSF), positioned at least 500 μm away from the stimulation electrode. The stimulus intensity was set 0.03 mA above the threshold. After a 30-min baseline was obtained with stimulation at 0.05 Hz, long-term potentiation (LTP) was induced by stimulating the Schaeffer collaterals at 100 Hz for 1 s four times at 20 s intervals. A new baseline was established over the following 30 min. Potentiation was estimated by comparing the rising slope of the field excitatory postsynaptic potential (fEPSP) before and 25–30 min after high-frequency stimulation.
Supplementary file prp20003-e00126-sd2.tif: Figure S1. Effect of neurolide-1 on LTP in acute hippocampal slices. Neurolide-1 at a concentration of 1 µmol/L was added directly to the running artificial CSF during baseline measurement before the induction of LTP.
Supplementary Figure S1. Effect of neurolide-1 on LTP in acute hippocampal slices. Neurolide-1 at a concentration of 1 µM was added directly to the running artificial CSF during baseline measurement before the induction of LTP.

Sequence: SEGNRWSNSTKGLFQRA [neurolide-1]
- effect on LTP, direct treatment of hippocampal slices: did not affect LTP
